The source of these data is US9012484B2, “Crystal and pharmaceutical preparation containing the same crystal” (Pola Pharma Inc., priority 2012, dated 2015).

Entries after “also recorded” stand apart in the source; their conditions may differ.

Data set [1] in a line: State of dissolution in ethanol observed with the naked eye. It counts as physicochemical. How it is done:
The alcohol contents of crystals (Crystals 2, 3) obtained by changing the recrystallization condition of Example 1 were measured, and the state of dissolution in ethanol was also observed with the naked eye. Crystal 2 and Crystal 3 are the crystals of the present invention, wherein the dissolution state was satisfactory as well.
The alcohol content (content of alcohol used in recrystallization) of compositions obtained by changing the recrystallization condition of Example 1 was measured, and the state of dissolution in ethanol was also observed with the naked eye.

Data set [2] is described as follows: Comparison of state of dissolution in ethanol between crystals. Particulars: rank order between crystals. It counts as physicochemical. How it is done:
The alcohol content of Crystal 4 obtained by changing the recrystallization condition of Example 1 was measured, and the state of dissolution in ethanol was also compared with those of Crystal of Comparative Example of Example 1 and Crystal 3 to compare the solubility.
The alcohol content of Crystal 5 obtained by changing the recrystallization condition of Example 1 was measured, and the state of dissolution in ethanol was also compared with those of Crystal of Comparative Example of Example 1 and Crystal 2 to compare the solubility.
The alcohol content of Crystal 6 obtained by changing the recrystallization condition of Example 1 was measured, and the state of dissolution in ethanol was also compared with those of Crystal of Comparative Example of Example 1, Crystal 4, and Crystal 3 to compare the solubility.
The alcohol content of Crystal 7 obtained by changing the recrystallization condition of Example 1 was measured, and the state of dissolution in ethanol was also compared with those of Crystal of Comparative Example of Example 1 and Crystal 5 to compare the solubility.

Data set [3] can be described thus: Elution test: time required for dissolution in anhydrous ethanol (50 rpm). It counts as physicochemical. Particulars: 1 g sample in 500 mL anhydrous ethanol, room temperature, stirring 50 rpm. How it is done:
(§1) An elution test (stirring condition: 50 rpm) was performed for Raw Material 1 (Crystal of Comparative Example) and Crystal 1 of Example 1 to investigate the elution dynamics. After confirming the dissolution of all crystals, the Z isomer and the SE isomer, which were isomers produced in the solution, were analyzed and quantitatively measured by means of HPLC. In the elution test, 500 mL of anhydrous ethanol was used as the solvent, wherein 1 g of the sample was dissolved at room temperature while stirring, and the time, which was required for the dissolution, was simultaneously measured. Accordingly, it is understood that the time, which is required for the dissolution, is short for Crystal 1, and thus the production of the Z isomer and the SE isomer as the isomers is suppressed in the dissolving step.

Data set [4] can be described thus: HPLC measurement of Z and SE isomers produced in the solution after dissolution. The settings on record: in ethanol solution after dissolution of all crystals. Type of data set: physicochemical. How it is done: as §1, with “step. The condition for HPLC was as follows. Column: CHIRALCEL OD-RH 4.6×150 mm, column temperature: 35° C., mobile phase: mixture solution of methanol/2% aqueous solution of potassium hexafluorophosphate (85:15, v/v), flow rate: 0.6 mL/min., detection: 295 nm).” for “step.”

The test system of data set [5] is Trichomonas vaginalis (clinically isolated strain). The experiment in a line: Trichomonas vaginalis culture, cell count on hemocytometer. The settings on record: 5.08 mg crystal in Trichomonas medium F, culture 4 days at 37° C., start 3.93×10^5 cells/mL. It counts as cell-based. Here is the method:
Effects of an active ingredient containing alcohol were examined by utilizing crystal 10. Crystal, which was obtained by performing recrystallization from a mixture solution of ethyl acetate and n-hexane and which contained no alcohol, was used as a comparative example (comparative crystal). Direct effects of luliconazole were investigated by utilizing Trichomonas vaginalis (clinically isolated strain). Samples were prepared such that 5.08 mg of comparative crystal was added in “Trichomonas medium F” (Fuji Pharma), 5.08 mg of crystal 10 was added in the medium, and 5 μL of water was added in the medium (control). […] of culture solution containing 3.93×10^5 cells/mL of Trichomonas vaginalis was added to each of the samples, followed by culturing for 4 days at 37° C. After that, cells of Trichomonas were counted on a hemocytometer. Between these three samples, significant difference was confirmed at a critical value of not more than 1%.

The nature of data set [6]: Tablet hardness measurement (PTB311). Particulars: tablet 50% lactose / 50% luliconazole, tableting pressure 1 ton/cm^2, 9 mmφ, average of 6 tablets. It counts as physicochemical. Here is the method:
According to the formulation described in the following Table 6, tablet was prepared, and its hardness was measured. PTB311 (Pharma Test GmbH) was used as a measurement apparatus for hardness. Condition of tableting was performed at tableting pressure of 1 ton/cm^2 by utilizing 9 mmφ of a mortar and mallet. Comparative example was prepared by performing same procedures as described above by using comparative crystal. […] Accordingly, it is assumed that a tablet having high hardness can be obtained by utilizing the active ingredient containing alcohol since the active ingredient containing alcohol has strong affinity between the active ingredients.

On to `N#C/C(=C1/SC[C@@H](c2ccc(Cl)cc2Cl)S1)n1ccnc1` [Crystal 2, luliconazole], for which, in data set [1], the “Solubility (state of dissolution in ethanol)” value is on record as “satisfactory”. In data set [2], the “Solubility order (state of dissolution in ethanol compared)” value was “Crystal of Comparative Example<<Crystal 2=Crystal 5”.

`N#C/C(=C1/SC[C@@H](c2ccc(Cl)cc2Cl)S1)n1ccnc1` [Crystal 4, luliconazole]: the “Solubility order (state of dissolution in ethanol compared)” value in data set [2] is given as “Crystal of Comparative Example<<Crystal 4=Crystal 6<Crystal 3”.

On to `N#C/C(=C1/SC[C@@H](c2ccc(Cl)cc2Cl)S1)n1ccnc1` [Crystal 1, luliconazole], for which the “Time required until dissolution” value in data set [3] is 200 min. Also, in data set [4], the “Amount of generation of SE isomer” value is on record as 0.06% and the “Amount of generation of Z isomer” value came to 0.06%.

With `N#C/C(=C1/SC[C@@H](c2ccc(Cl)cc2Cl)S1)n1ccnc1` [Crystal 6, luliconazole], the “Solubility order (state of dissolution in ethanol compared)” value in data set [2] is “Crystal of Comparative Example<<Crystal 4=Crystal 6<Crystal 3”.

Consider `N#C/C(=C1/SC[C@@H](c2ccc(Cl)cc2Cl)S1)n1ccnc1` [Crystal of Comp. Ex., luliconazole, reference compound], for which the “Time required until dissolution” value in data set [3] was determined as 300 min. In data set [4], the “Amount of generation of SE isomer” value is recorded as 0.09% and the “Amount of generation of Z isomer” value was determined as 0.13%. The “Solubility order (state of dissolution in ethanol compared)” value in data set [2] (listed as Comparative Example) was “Comparative Example<<Crystal 4<Crystal 3”. Also, the “Solubility order (state of dissolution in ethanol compared)” value in data set [2] (listed as Crystal of Comparative Example) is “Crystal of Comparative Example<<Crystal 2=Crystal 5; also recorded: Crystal of Comparative Example<<Crystal 4=Crystal 6<Crystal 3; also recorded: Crystal of Comparative Example<<Crystal 5=Crystal 7”. Besides, in data set [5] (listed as Comparative crystal), the “Cells of Trichomonas counted, Average” value is on record as 376000. Further, the Hardness in data set [6] (listed as Comparative crystal) was 29.1 ± 3.0 N.

As for `N#C/C(=C1/SC[C@@H](c2ccc(Cl)cc2Cl)S1)n1ccnc1` [Crystal 10, luliconazole], the “Solubility (state of dissolution in ethanol)” value in data set [1] was “satisfactory”. Also, the “Cells of Trichomonas counted, Average” value in data set [5] was 256000. This molecule also returned a Hardness in data set [6] of 73.7 ± 4.2 N.

As to `N#C/C(=C1/SC[C@@H](c2ccc(Cl)cc2Cl)S1)n1ccnc1` [Crystal 5, luliconazole], in data set [2], the “Solubility order (state of dissolution in ethanol compared)” value was “Crystal of Comparative Example<<Crystal 2=Crystal 5; also recorded: Crystal of Comparative Example<<Crystal 5=Crystal 7”.

In the case of `N#C/C(=C1/SC[C@@H](c2ccc(Cl)cc2Cl)S1)n1ccnc1` [Crystal 7, luliconazole], the “Solubility order (state of dissolution in ethanol compared)” value in data set [2] is “Crystal of Comparative Example<<Crystal 5=Crystal 7”.

Take `N#C/C(=C1/SC[C@@H](c2ccc(Cl)cc2Cl)S1)n1ccnc1` [Crystal 3, luliconazole]: the “Solubility (state of dissolution in ethanol)” value in data set [1] was “satisfactory”. Moreover, the “Solubility order (state of dissolution in ethanol compared)” value in data set [2] is “Crystal of Comparative Example<<Crystal 4=Crystal 6<Crystal 3”.
